Test results from article PMC9516332 (Frontiers in Oncology, 2022).

Tests used:
[1] = tested on: ERBB2-amplified cell lines; assay: Cell viability assay, ERBB2-amplified versus non-amplified cell lines; format: cell-based; details: MANOVA
Method: The effect of compounds on cell viability was determined by measuring intracellular ATP content as an indirect readout of cell number ([15]). […] A vehicle-treated control (0.4% (v/v) DMSO) was included in quadruplicate on the same assay plate to determine maximum cell growth. The final DMSO concentration was 0.4% (v/v) in all wells. After incubation for another 72 hours, ATP content in each well was measured as described previously. […] When the cell doubling deviated > 2-fold from the historic doubling as determined in multiple independent experiments, the experiment was invalidated and repeated. […] IC50 values of kinase inhibitors were calculated by fitting a 4-parameter logistic curve to the percentage viability values using IDBS XLfit5 (IDBS, Guildford, United Kingdom). […] . For some compounds, biphasic curves were measured in one or more cell lines, indicating a dual mechanism of action in these cell lines ([29]). […] For all bioinformatic analyses, ^10log(IC50 [nmol/L]) values were used.
Cell lines were classified as having an alteration in a specific cancer gene if at least one allele was altered by point mutation, insertion, deletion, fusion, or amplification. The mutation, fusion, and amplification status of the cell lines was retrieved from the COSMIC cell lines project (version 80) ([23]), Cancer Cell Line Encyclopedia (CCLE), DepMap (version 22Q1) ([16]), and Cellosaurus ([30]) databases. In order to ensure that genomic alterations included in subsequent analyses were relevant to cancer growth and drug response, mutations were only included when they were either reported as a hotspot mutation in Cancer Hotspots ([31]), described as oncogenic and gain-of-function in OncoKB or JAX CKB, or described as pathogenic in the literature. […] J82 was therefore annotated as FGFR3 wild-type.
All statistical analyses were performed in R (version 4.1.2), unless otherwise indicated. A two-sided Mann-Whitney test was performed for two-group comparisons. […] . Multivariate analysis of variance (MANOVA) was performed for multi-group comparison.

[2] = target: T1, panel of 255 wild-type kinases (Homo sapiens, UniProt Q13043); details: MST1; 1 µmol/L single concentration; ref DOI: 10.1158/1535-7163.MCT-18-0877; cited from earlier work
T1 sequence (Q13043 1-487): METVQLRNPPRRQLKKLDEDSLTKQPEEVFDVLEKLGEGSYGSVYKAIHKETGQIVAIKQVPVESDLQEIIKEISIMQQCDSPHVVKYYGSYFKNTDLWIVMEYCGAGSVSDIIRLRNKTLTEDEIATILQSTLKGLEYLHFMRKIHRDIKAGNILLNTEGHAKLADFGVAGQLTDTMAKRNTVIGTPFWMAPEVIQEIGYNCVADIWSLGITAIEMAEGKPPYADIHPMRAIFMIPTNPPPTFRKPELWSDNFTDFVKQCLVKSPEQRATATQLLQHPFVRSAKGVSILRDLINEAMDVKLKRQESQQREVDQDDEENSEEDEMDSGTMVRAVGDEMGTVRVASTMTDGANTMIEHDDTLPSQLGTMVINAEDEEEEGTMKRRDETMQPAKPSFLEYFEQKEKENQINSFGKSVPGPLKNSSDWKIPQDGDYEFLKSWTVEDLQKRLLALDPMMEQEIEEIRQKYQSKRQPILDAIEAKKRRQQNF

[3] = target: panel of 255 wild-type kinases (Homo sapiens, UniProt P08922); details: kinase ROS; 1 µmol/L single concentration; ref DOI: 10.1158/1535-7163.MCT-18-0877; cited from earlier work
[4] = target: panel of 255 wild-type kinases (Homo sapiens, UniProt Q9Y243); details: AKT3 kinase assay; 1 µmol/L single concentration; ref DOI: 10.1158/1535-7163.MCT-18-0877; cited from earlier work
[5] = target: T2, panel of 255 wild-type kinases (Homo sapiens, UniProt Q13237); details: CGK2 kinase assay; 1 µmol/L single concentration; ref DOI: 10.1158/1535-7163.MCT-18-0877; cited from earlier work
T2 sequence (Q13237 1-762): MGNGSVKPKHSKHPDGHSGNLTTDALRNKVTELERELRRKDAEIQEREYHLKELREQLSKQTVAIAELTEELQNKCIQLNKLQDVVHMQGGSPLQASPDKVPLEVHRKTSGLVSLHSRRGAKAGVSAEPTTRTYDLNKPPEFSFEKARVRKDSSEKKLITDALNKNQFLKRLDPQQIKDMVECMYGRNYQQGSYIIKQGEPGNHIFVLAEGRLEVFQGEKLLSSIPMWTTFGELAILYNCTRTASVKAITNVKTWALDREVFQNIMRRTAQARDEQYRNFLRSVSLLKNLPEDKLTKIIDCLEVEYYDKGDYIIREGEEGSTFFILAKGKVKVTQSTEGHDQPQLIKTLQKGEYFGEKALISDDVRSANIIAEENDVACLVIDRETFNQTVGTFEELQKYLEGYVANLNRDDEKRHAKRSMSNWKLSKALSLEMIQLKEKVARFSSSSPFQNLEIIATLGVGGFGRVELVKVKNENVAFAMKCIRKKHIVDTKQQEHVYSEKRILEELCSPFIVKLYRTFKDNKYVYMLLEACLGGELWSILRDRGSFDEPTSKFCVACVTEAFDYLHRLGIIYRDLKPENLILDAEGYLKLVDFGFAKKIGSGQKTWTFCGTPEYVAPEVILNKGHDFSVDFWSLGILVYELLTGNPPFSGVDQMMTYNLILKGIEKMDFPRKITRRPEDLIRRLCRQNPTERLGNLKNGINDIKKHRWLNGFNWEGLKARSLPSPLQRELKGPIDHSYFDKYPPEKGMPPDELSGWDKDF

[6] = target: panel of 255 wild-type kinases (Homo sapiens, UniProt P31751); details: AKT2 kinase assay; 1 µmol/L single concentration; ref DOI: 10.1158/1535-7163.MCT-18-0877; cited from earlier work
[7] = target: panel of 255 wild-type kinases (Homo sapiens, UniProt Q06187); details: BTK kinase assay; 1 µmol/L single concentration; ref DOI: 10.1158/1535-7163.MCT-18-0877; cited from earlier work
[8] = target: panel of 255 wild-type kinases (Homo sapiens, UniProt P08581); details: MET; 1 µmol/L single concentration; ref DOI: 10.1158/1535-7163.MCT-18-0877; cited from earlier work
[9] = target: panel of 255 wild-type kinases (Homo sapiens, UniProt Q92918); assay: Kinase panel profiling at 1 µmol/L (MSA or IMAP), percentage inhibition; format: biochemical; details: kinase HPK1; 1 µmol/L single concentration; read-out: %-inhibition at 1 µmol/L, HPK1

Row | SMILES | preferential targeting of ERBB2-amplified versus non-amplified cell lines [1] [fold] | %-inhibition, MST1 [2] [%] | %-inhibition at 1 µmol/L, ROS [3] [%] | %-inhibition AKT3 [4] [%] | %-inhibition CGK2 [5] [%] | %-inhibition AKT2 [6] [%] | %-inhibition BTK [7] [%] | %-inhibition, MET [8] [%] | inhibition at 1 µM [9] [%]
1 | CC#CC(=O)N1CCC[C@H]1c1nc(-c2ccc(C(=O)Nc3ccccn3)cc2)c2c(N)nccn12 [acalabrutinib] | 44 | 4 | 1.79 | -5 | 1.55 | -2.69 | 95 | 4 | 
2 | C=CC(=O)N1CCC[C@@H](n2nc(-c3ccc(Oc4ccccc4)cc3)c3c(N)ncnc32)C1 [ibrutinib] | 254 | 4 | 5 | -2.25 | -1.77 | -3 |  | 12 | 
3 | C=CC(=O)N1CCC([C@@H]2CCNc3c(C(N)=O)c(-c4ccc(Oc5ccccc5)cc4)nn32)CC1 [zanubrutinib] | 45 |  |  |  |  |  |  |  | 1.75
